From patent publication US9951049B2, “Pyrazole linked benzimidazole conjugates and a process for preparation thereof” (Council of Scientific & Industrial Reseach, priority 2014, dated 2018)

Tests used:
[1] = test system: fifty six human tumor cell lines; assay: NCI human tumor cell line screen (48 h, SRB), all cell lines; settings: various cell lines
[2] = test system: Ovarian cancer cell lines; assay: NCI SRB screen, Ovarian panel average; settings: Homo sapiens, 48 h, read-out: Log10 GI50 (converted)
[3] = test system: Prostate cancer cell lines; assay: NCI SRB screen, Prostate panel average; settings: Homo sapiens, 48 h, read-out: Log10 GI50 (converted)
Renal cancer cell lines = assay: NCI SRB screen, Renal panel average; settings: Homo sapiens, 48 h, read-out: Log10 GI50 (converted)
Colon cancer cell lines = assay: NCI SRB screen, Colon panel average; settings: Homo sapiens, 48 h, read-out: Log10 GI50 (converted)
CNS cancer cell lines = assay: NCI SRB screen, CNS panel average; settings: Homo sapiens, 48 h, read-out: Log10 GI50 (converted)
Leukemia cell lines = assay: NCI SRB screen, Leukemia panel average; settings: Homo sapiens, 48 h, read-out: Log10 GI50 (converted)
Breast Cancer cell lines = assay: NCI SRB screen, Breast Cancer panel average; settings: Homo sapiens, 48 h, read-out: Log10 GI50 (converted)
Melanoma cell lines = assay: NCI SRB screen, Melanoma panel average; settings: Homo sapiens, 48 h, read-out: Log10 GI50 (converted)
[4] = test system: Non-small-cell lung cancer cell lines; assay: NCI SRB screen, Non-small-cell lung panel average; settings: Homo sapiens, 48 h, read-out: Log10 GI50 (converted)

COc1ccc(-c2cc(-c3nc4cc(F)ccc4[nH]3)[nH]n2)c(OC)c1 [7e, 2-(3-(2,4-dimethoxyphenyl)-1H-pyrazol-5-yl)-5-fluoro-1H-benzo[d]imidazole]
mean graph pattern: profile of activity and selectivity [1]: an interesting profile of activity and selectivity

COc1ccc(-c2cc(-c3nc4cc([N+](=O)[O-])ccc4[nH]3)[nH]n2)c(OC)c1 [12e, 2-(3-(2,4-dimethoxyphenyl)-1H-pyrazol-5-yl)-5-nitro-1H-benzo[d]imidazole]
mean graph pattern: profile of activity and selectivity [1]: an interesting profile of activity and selectivity

COc1ccc(-c2cc(-c3nc4cc(Cl)c(F)cc4[nH]3)[nH]n2)c(OC)c1 [13e, 5-chloro-2-(3-(2,4-dimethoxyphenyl)-1H-pyrazol-5-yl)-6-fluoro-1H-benzo[d]imidazole]
mean graph pattern: profile of activity and selectivity [1]: an interesting profile of activity and selectivity

COc1ccc(-c2cc(-c3nc4cc(C(F)(F)F)ccc4[nH]3)[nH]n2)c(OC)c1 [11e, 2-(3-(2,4-dimethoxyphenyl)-1H-pyrazol-5-yl)-5-(trifluoromethyl)-1H-benzo[d]imidazole]
mean graph pattern: profile of activity and selectivity [1]: an interesting profile of activity and selectivity

COC(=O)Nc1nc2ccc(C(=O)c3cccs3)cc2[nH]1 [Nocodazole, reference compound]
GI50 [2]: 145 nM | GI50 [3]: 14.5 nM | GI50 (Renal cancer cell lines): 107 nM | GI50 (Colon cancer cell lines): 17.8 nM | GI50 (CNS cancer cell lines): 22.9 nM | GI50 (Leukemia cell lines): 12.3 nM | GI50 (Breast Cancer cell lines): 155 nM | GI50 (Melanoma cell lines): 22.4 nM | GI50 [4]: 20.4 nM

COc1ccc(-c2cc(-c3nc4cc(Cl)ccc4[nH]3)[nH]n2)c(OC)c1 [8e, 5-chloro-2-(3-(2,4-dimethoxyphenyl)-1H-pyrazol-5-yl)-1H-benzo[d]imidazole]
mean graph pattern: profile of activity and selectivity [1]: an interesting profile of activity and selectivity

COc1ccc(-c2cc(-c3nc4cc(Cl)c(Cl)cc4[nH]3)[nH]n2)c(OC)c1 [10e, 5,6-dichloro-2-(3-(2,4-dimethoxyphenyl)-1H-pyrazol-5-yl)-1H-benzo[d]imidazole]
mean graph pattern: profile of activity and selectivity [1]: an interesting profile of activity and selectivity
